Tests used:
Format in all cases: cell-based, Mycobacterium tuberculosis
QuinR mutant strains = test system: QuinR mutant strains
[1] = test system: QuinR-M1 (QcrA Leu356Val)
[2] = test system: QuinR-M3 (QcrB Gly175Ser)
H37Rv-Rv1777(R145S) = test system: H37Rv-Rv1777(R145S)
[3] = test system: QuinR-M2 (QcrB Trp312Gly)
[4] = test system: complemented mutant (ΔcydAB)
M. tb H37Rv ΔcydKO A317V = test system: M. tb H37Rv ΔcydKO A317V

Row | SMILES | ATP depletion in QuinR mutants (QuinR mutant strains) | fold-change MIC compared to H37Rv (QuinR-M1) [1] | fold-change MIC compared to H37Rv (QuinR-M3) [2] | fold change in the MIC, H37Rv-Rv1777(R145S) (H37Rv-Rv1777(R145S)) | fold-change MIC compared to H37Rv (QuinR-M2) [3] | static or cidal activity by CFU enumeration [4] | basal respiration after compound addition (M. tb H37Rv ΔcydKO A317V)
1 | COc1nc2ccc(Br)cc2cc1[C@@H](c1ccccc1)[C@@](O)(CCN(C)C)c1cccc2ccccc12 [BDQ] | Significant ATP depletion | – | – | – | – | – | –
2 | CCSc1nc(NC)c2ccccc2n1 [Compound 11626141] | – | 59 fold-change | 92 fold-change | ≤ 3 fold | 1489 fold-change | – | –
3 | CCNc1nc(SCC)nc2ccccc12 [Compound 11626142] | – | 39 fold-change | 34 fold-change | ≤ 3 fold | 1111 fold-change | – | –
4 | CCSc1nc(NC)c2cccc(F)c2n1 [Compound 11626252] | low-level ATP depletion | 25 fold-change | 61 fold-change | ≤ 3 fold | 1470 fold-change | bacteriostatic effect is restored | did not cause a deviation in basal respiration
5 | CCSc1nc(NC)c2ccc(F)c(F)c2n1 [Compound 11726148] | – | 100 fold-change | 142 fold-change | – | 224 fold-change | – | –
6 | CCc1nc2ccc(Cl)cn2c1C(=O)NCc1ccc(N2CCC(c3ccc(OC(F)(F)F)cc3)CC2)cc1 [Compound Q203, Telacebec, reference compound] | Significant ATP depletion | 669 fold-change | 191 fold-change | – | 742 fold-change | – | –
7 | Cc1c(OCC(F)(F)F)ccnc1CSc1nc2ccccc2[nH]1 [LPZs, lansoprazole sulfide, reference compound] | – | > 71 fold-change | 1 fold-change | – | > 71 fold-change | – | –

— paper PMC6999911, “New 2-Ethylthio-4-methylaminoquinazoline derivatives inhibiting two subunits of cytochrome bc1 in Mycobacterium tuberculosis” (PLoS Pathogens, 2020)
